From US12685735B2 (Foghorn Therapeutics Inc., priority 2020, dated 2026)
Where two headings read alike, the source gives them in different places.

Experiments:
BRG-1 = BRG-1 (Homo sapiens, UniProt P51532); test: ATPase catalytic activity assay of BRG-1 (ADP-Glo); type: biochemical; conditions: ATPase catalytic activity, ADP-Glo; for IC50: read-out: BRG1 IC50 (μM)*; for Emax: read-out: BRG1 Max % Inhibition
Procedure, shortened: (§1)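 Once the enzyme reaction finished, residual ATP is removed with ADP-Glo Reagent over 40 minutes at room temperature. Kinase Detection Reagent then converts product ADP into ATP during a 60-minute room-temperature incubation, and the luciferase signal is read.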

BRM = BRM (Homo sapiens, UniProt P51531); test: ATPase catalytic activity assay of BRM (ADP-Glo); type: biochemical; conditions: for IC50: read-out: BRM IC50 (μM)*
BRM, sequence (P51531 whole entry): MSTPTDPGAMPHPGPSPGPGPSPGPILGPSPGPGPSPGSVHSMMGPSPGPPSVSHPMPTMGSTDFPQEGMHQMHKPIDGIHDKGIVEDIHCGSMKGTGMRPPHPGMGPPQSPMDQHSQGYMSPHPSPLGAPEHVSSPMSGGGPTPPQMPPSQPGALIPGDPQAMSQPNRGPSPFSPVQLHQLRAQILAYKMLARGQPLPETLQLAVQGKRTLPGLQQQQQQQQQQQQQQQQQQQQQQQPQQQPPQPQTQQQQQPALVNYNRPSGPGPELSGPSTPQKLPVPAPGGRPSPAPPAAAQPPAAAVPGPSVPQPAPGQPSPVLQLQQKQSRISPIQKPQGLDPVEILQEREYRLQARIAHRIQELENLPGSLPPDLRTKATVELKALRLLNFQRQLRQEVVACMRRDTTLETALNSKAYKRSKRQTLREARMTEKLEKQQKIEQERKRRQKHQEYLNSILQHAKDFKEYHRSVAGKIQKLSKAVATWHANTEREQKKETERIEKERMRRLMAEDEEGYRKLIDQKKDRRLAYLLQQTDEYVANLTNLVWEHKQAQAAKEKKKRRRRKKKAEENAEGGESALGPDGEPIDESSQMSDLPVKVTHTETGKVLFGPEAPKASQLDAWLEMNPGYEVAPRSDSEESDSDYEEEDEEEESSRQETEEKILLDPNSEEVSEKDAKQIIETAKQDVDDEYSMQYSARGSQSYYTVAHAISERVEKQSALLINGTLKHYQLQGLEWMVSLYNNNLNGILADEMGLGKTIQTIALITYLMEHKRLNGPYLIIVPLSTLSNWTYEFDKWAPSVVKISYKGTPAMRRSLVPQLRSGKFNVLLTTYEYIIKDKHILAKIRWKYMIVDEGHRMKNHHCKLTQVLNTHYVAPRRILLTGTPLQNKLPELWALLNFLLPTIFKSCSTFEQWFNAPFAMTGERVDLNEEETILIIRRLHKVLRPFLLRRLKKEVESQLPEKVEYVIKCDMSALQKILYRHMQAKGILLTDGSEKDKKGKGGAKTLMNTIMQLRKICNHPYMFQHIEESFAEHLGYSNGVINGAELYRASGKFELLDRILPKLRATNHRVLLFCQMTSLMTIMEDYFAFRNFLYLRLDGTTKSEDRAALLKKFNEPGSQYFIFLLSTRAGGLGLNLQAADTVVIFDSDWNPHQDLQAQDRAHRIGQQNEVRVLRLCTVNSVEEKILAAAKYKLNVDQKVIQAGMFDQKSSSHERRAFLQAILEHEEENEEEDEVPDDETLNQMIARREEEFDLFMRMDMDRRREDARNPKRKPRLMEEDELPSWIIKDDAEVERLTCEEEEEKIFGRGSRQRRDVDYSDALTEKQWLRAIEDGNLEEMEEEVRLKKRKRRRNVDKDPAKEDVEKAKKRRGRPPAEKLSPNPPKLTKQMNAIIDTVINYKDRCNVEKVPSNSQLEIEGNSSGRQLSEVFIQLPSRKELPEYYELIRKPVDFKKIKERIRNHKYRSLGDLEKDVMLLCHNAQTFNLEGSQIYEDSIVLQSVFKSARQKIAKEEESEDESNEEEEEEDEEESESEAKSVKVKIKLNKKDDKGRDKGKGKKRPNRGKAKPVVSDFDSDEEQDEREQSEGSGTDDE
Procedure, shortened: as §1

BRG-1, sequence (P51532 whole entry): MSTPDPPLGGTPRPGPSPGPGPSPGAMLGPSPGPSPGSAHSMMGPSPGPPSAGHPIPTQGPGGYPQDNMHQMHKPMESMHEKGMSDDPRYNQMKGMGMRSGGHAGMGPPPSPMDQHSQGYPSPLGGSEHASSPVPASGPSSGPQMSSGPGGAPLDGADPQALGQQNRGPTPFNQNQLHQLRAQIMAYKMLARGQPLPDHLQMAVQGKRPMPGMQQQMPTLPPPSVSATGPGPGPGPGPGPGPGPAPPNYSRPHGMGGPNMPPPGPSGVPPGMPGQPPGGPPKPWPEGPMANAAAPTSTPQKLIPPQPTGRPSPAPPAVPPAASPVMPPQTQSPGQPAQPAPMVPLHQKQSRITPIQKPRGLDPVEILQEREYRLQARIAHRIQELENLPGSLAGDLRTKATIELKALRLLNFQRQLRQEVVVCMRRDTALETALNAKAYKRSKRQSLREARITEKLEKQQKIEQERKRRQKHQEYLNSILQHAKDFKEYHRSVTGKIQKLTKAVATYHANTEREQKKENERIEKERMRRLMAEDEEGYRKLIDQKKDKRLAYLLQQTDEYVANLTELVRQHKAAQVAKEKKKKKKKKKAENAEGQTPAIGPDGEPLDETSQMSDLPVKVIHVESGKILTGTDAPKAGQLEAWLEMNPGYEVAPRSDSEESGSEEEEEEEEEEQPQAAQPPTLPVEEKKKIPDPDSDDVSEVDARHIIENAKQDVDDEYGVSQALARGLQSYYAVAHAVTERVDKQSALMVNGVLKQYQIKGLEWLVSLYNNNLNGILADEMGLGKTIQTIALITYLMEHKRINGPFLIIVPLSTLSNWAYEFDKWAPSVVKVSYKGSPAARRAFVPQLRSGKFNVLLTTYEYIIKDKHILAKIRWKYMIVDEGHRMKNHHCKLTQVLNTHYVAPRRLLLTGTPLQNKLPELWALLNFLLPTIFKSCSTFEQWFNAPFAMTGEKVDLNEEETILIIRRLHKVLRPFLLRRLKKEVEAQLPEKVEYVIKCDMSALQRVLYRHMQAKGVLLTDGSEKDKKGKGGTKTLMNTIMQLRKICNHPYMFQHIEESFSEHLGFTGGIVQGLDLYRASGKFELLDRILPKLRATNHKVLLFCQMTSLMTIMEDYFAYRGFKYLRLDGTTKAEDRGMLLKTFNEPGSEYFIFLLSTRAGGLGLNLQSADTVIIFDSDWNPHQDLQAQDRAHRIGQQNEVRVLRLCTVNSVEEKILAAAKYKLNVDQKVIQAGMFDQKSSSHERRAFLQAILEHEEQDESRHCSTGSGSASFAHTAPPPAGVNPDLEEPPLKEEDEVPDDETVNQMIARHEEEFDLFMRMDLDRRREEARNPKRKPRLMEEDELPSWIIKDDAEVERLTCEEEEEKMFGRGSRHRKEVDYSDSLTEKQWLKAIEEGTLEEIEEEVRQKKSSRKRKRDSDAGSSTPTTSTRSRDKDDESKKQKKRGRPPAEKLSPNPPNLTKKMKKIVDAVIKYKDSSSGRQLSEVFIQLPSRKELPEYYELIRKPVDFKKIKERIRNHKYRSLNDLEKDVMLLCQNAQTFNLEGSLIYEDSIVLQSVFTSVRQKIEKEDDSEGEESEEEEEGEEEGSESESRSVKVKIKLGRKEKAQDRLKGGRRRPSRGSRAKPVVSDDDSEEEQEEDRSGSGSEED

Structure (SMILES)	IC50 (BRG-1)	Emax (BRG-1)	BRM Max % Inhibition (BRM)	IC50 (BRM)	IC50 (BRG-1; 30 nM BRG-1, 400 μM ATP)	Emax (BRG-1; 30 nM BRG-1, 400 μM ATP)	BRM Max % Inhibition (BRM; 30 nM BRM, 400 μM ATP)	IC50 (BRM; 30 nM BRM, 400 μM ATP)
C[C@@H]1CN(c2cccc(-c3csc(NC(=O)CNC(=O)c4ccc5c(c4)S(=O)(=O)CCC5)n3)c2)C[C@H](C)O1 [Compound 396, N-(2-((4-(3-((cis)-2,6-dimethylmorpholino)phenyl)thiazol-2-yl)amino)-2-oxoethyl)thiochromane-7-carboxamide 1,1-dioxide]	1 to 5 µM	> 90%	>90%	0.1 to 1 µM	–	–	–	–
COc1cccc(-c2csc(NC(=O)CNC(=O)c3ccc4c(c3)[C@](C)(C#N)COC4)n2)n1 [Compound 397, (R)-4-cyano-N-(2-((4-(6-methoxypyridin-2-yl)thiazol-2-yl)amino)-2-oxoethyl)-4-methylisochromane-6-carboxamide]	0.1 to 1 µM	> 95%	>95%	< 0.1 µM	–	–	–	–
C[C@@]1(C#N)COCc2ccc(C(=O)NCC(=O)Nc3nc(-c4cccc(C(F)F)c4)cs3)cc21 [Compound 398, (R)-4-cyano-N-(2-((4-(3-(difluoromethyl)phenyl)thiazol-2-yl)amino)-2-oxoethyl)-4-methylisochromane-6-carboxamide]	0.1 to 1 µM	> 95%	>95%	< 0.1 µM	–	–	–	–
COc1cc(-c2csc(NC(=O)CNC(=O)c3ccc4c(c3)[C@](C)(C#N)COC4)n2)ccc1F [Compound 399, (R)-4-cyano-N-(2-((4-(4-fluoro-3-methoxyphenyl)thiazol-2-yl)amino)-2-oxoethyl)-4-methylisochromane-6-carboxamide]	0.1 to 1 µM	> 95%	>95%	< 0.1 µM	–	–	–	–
COc1cc(-c2csc(NC(=O)CNC(=O)c3ccc4c(c3)[C@](C)(C#N)COC4)n2)ccn1 [Compound 400, (R)-4-cyano-N-(2-((4-(2-methoxypyridin-4-yl)thiazol-2-yl)amino)-2-oxoethyl)-4-methylisochromane-6-carboxamide]	0.1 to 1 µM	> 95%	>95%	< 0.1 µM	–	–	–	–
COc1cccc(-c2csc(NC(=O)CNC(=O)c3ccc4c(c3)[C@](C)(C#N)COC4)n2)c1 [Compound 401, (R)-4-cyano-N-(2-((4-(3-methoxyphenyl)thiazol-2-yl)amino)-2-oxoethyl)-4-methylisochromane-6-carboxamide]	0.1 to 1 µM	> 95%	>95%	< 0.1 µM	–	–	–	–
COc1cccc(-c2csc(NC(=O)CNC(=O)c3ccc4c(c3)[C@](C)(C#N)COC4)n2)c1F [Compound 402, (R)-4-cyano-N-(2-((4-(2-fluoro-3-methoxyphenyl)thiazol-2-yl)amino)-2-oxoethyl)-4-methylisochromane-6-carboxamide]	< 0.1 µM	> 95%	>95%	< 0.1 µM	–	–	–	–
C[C@@H]1CN(c2cccc(-c3csc(NC(=O)CNC(=O)c4ccc5c(c4)[C@](C)(CO)CN5C)n3)c2)C[C@H](C)O1 [Compound 403, (S)-N-(2-((4-(3-((cis)-2,6-dimethylmorpholino)phenyl)thiazol-2-yl)amino)-2-oxoethyl)-3-(hydroxymethyl)-1,3-dimethylindoline-5-carboxamide]	1 to 5 µM	> 90%	>90%	0.1 to 1 µM	–	–	–	–
C[C@@H]1CN(c2cccc(-c3csc(NC(=O)CNC(=O)c4ccc5c(c4)[C@@](C)(CO)CN5C)n3)c2)C[C@H](C)O1 [Compound 404, (R)-N-(2-((4-(3-((cis)-2,6-dimethylmorpholino)phenyl)thiazol-2-yl)amino)-2-oxoethyl)-3-(hydroxymethyl)-1,3-dimethylindoline-5-carboxamide]	> 5 µM	> 80%	>80%	0.1 to 1 µM	–	–	–	–
C[C@@H]1CN(c2cccc(-c3csc(NC(=O)CNC(=O)c4ccc5c(c4)C4(CC4)COC5)n3)n2)C[C@H](C)O1 [Compound 406, N-(2-((4-(6-((cis)-2,6-dimethylmorpholino)pyridin-2-yl)thiazol-2-yl)amino)-2-oxoethyl)spiro[cyclopropane-1,4′-isochromane]-6′-carboxamide]	0.1 to 1 µM	> 95%	>95%	< 0.1 µM	–	–	–	–
C[C@@H]1CN(c2cccc(-c3csc(NC(=O)CNC(=O)c4cccc([C@]5(C)COC[C@H]5O)c4)n3)n2)C[C@H](C)O1 [Compound 408]	1 to 5 µM	> 90%	>90%	0.1 to 1 µM	–	–	–	–
C[C@@H]1CN(c2cccc(-c3csc(NC(=O)CNC(=O)c4ccc5c(c4)[C@](C)(F)COC5)n3)n2)C[C@H](C)O1 [Compound 409, (S)-N-(2-((4-(6-((cis)-2,6-dimethylmorpholino)pyridin-2-yl)thiazol-2-yl)amino)-2-oxoethyl)-4-fluoro-4-methylisochromane-6-carboxamide]	< 0.1 µM	> 95%	>95%	< 0.1 µM	–	–	–	–
C[C@@H]1CN(c2cccc(-c3csc(NC(=O)CNC(=O)c4ccc5c(c4)[C@@]4(COC5)CC4(F)F)n3)n2)C[C@H](C)O1 [Compound 410, (R)-N-(2-((4-(6-((cis)-2,6-dimethylmorpholino)pyridin-2-yl)thiazol-2-yl)amino)-2-oxoethyl)-2,2-difluorospiro[cyclopropane-1,4′-isochromane]-6′-carboxamide]	1 to 5 µM	> 95%	>95%	< 0.1 µM	–	–	–	–
C[C@@H]1CN(c2cccc(-c3csc(NC(=O)CNC(=O)c4ccc5c(c4)[C@]4(COC5)CC4(F)F)n3)n2)C[C@H](C)O1 [Compound 411, (S)-N-(2-((4-(6-((cis)-2,6-dimethylmorpholino)pyridin-2-yl)thiazol-2-yl)amino)-2-oxoethyl)-2,2-difluorospiro[cyclopropane-1,4′-isochromane]-6′-carboxamide]	> 5 µM	> 90%	>90%	0.1 to 1 µM	–	–	–	–
C[C@@H]1CN(c2cccc(-c3csc(NC(=O)CNC(=O)c4ccc5c(c4)[C@@](C)(F)COC5)n3)n2)C[C@H](C)O1 [Compound 412, (R)-N-(2-((4-(6-((cis)-2,6-dimethylmorpholino)pyridin-2-yl)thiazol-2-yl)amino)-2-oxoethyl)-4-fluoro-4-methylisochromane-6-carboxamide]	0.1 to 1 µM	> 90%	>90%	0.1 to 1 µM	–	–	–	–
COc1cccc(-c2csc(NC(=O)CNC(=O)c3ccc4c(c3)C(C)(C#N)CCN4)n2)c1 (stereo not shown) [Compound 415, 4-cyano-N-(2-((4-(3-methoxyphenyl)thiazol-2-yl)amino)-2-oxoethyl)-4-methyl-1,2,3,4-tetrahydroquinoline-6-carboxamide]	–	–	–	–	> 5 µM	> 90%	>90%	0.1 to 1 µM
C[C@@H]1CN(c2cccc(-c3csc(NC(=O)CNC(=O)c4cccc(C5(C#N)COC5)c4)n3)c2)C[C@H](C)O1 [Compound 418, 3-(3-cyanooxetan-3-yl)-N-(2-((4-(3-((cis)-2,6-dimethylmorpholino)phenyl)thiazol-2-yl)amino)-2-oxoethyl)benzamide]	–	–	–	–	0.1 to 1 µM	> 95%	>95%	< 0.1 µM
C[C@@H]1CN(c2cccc(-c3csc(NC(=O)CNC(=O)c4cccc(C5(C(F)F)COC5)c4)n3)c2)C[C@H](C)O1 [Compound 419, 3-(3-(difluoromethyl)oxetan-3-yl)-N-(2-((4-(3-((cis)-2,6-dimethylmorpholino)phenyl)thiazol-2-yl)amino)-2-oxoethyl)benzamide]	–	–	–	–	0.1 to 1 µM	> 95%	>95%	< 0.1 µM
CO[C@H]1C[C@@](F)(c2cccc(C(=O)NCC(=O)Nc3nc(-c4cccc(N5C[C@@H](C)O[C@@H](C)C5)n4)cs3)c2)C1 [Compound 426, N-(2-((4-(6-((cis)-2,6-dimethylmorpholino)pyridin-2-yl)thiazol-2-yl)amino)-2-oxoethyl)-3-((cis)-1-fluoro-3-methoxycyclobutyl)benzamide]	–	–	–	–	1 to 5 µM	> 95%	>95%	0.1 to 1 µM
Cn1ccc2ccc(-c3csc(NC(=O)CNC(=O)c4ccc5c(c4)[C@@](C)(C#N)CCO5)n3)cc2c1=O [Compound 433, (S)-4-cyano-4-methyl-N-(2-((4-(2-methyl-1-oxo-1,2-dihydroisoquinolin-7-yl)thiazol-2-yl)amino)-2-oxoethyl)chromane-6-carboxamide]	–	–	–	–	0.1 to 1 µM	> 95%	>95%	< 0.1 µM
C[C@@H]1CN(c2cccc(-c3csc(NC(=O)[C@H](CO)NC(=O)c4ccnc(C(C)(C)C)c4)n3)c2)C[C@H](C)O1 [Compound 434, 2-(tert-butyl)-N-((S)-1-((4-(3-((cis)-2,6-dimethylmorpholino)phenyl)thiazol-2-yl)amino)-3-hydroxy-1-oxopropan-2-yl)isonicotinamide]	–	–	–	–	1 to 5 µM	> 90%	>90%	0.1 to 1 µM
C[C@@H]1CN(c2cccc(-c3csc(NC(=O)[C@H](C)NC(=O)c4ccnc(C(C)(C)C)c4)n3)c2)C[C@H](C)O1 [Compound 435, 2-(tert-butyl)-N-((S)-1-((4-(3-((cis)-2,6-dimethylmorpholino)phenyl)thiazol-2-yl)amino)-1-oxopropan-2-yl)isonicotinamide]	–	–	–	–	1 to 5 µM	> 95%	>95%	0.1 to 1 µM
